Assay results: patent publication US10197557B2, “Small molecules for endothelial cell activation” (The Regents of the University of California, priority 2011, dated 2019)

Test system: Primary human umbilical endothelial cells (EC)
Assay: Biological platform: EC-monocyte co-culture, flow cytometry profiling (CD40, CD209, CD163) across 10 parameters
Type: cell-based
Settings: Prestwick library of FDA approved compounds (FIG. 1B)
Description: The biological platform or assay described herein can be embodied in different ways (see, e.g., FIGS. 1 and 9). An embodiment of the biological platform of invention is provided below: • 1. Primary human umbilical endothelial cells (EC) are adhered in 96 or 384-well plates at confluency for 2 hours. • 2. Control stimuli (or compounds of interest) are added to EC for 5 hours. • 3. Compounds are removed, EC washed, and primary human peripheral blood monocytes are added. • 4. After 24 hours, 25 μl of supernatant is removed for MIP1α and MIP1β analysis. • 5. After 42-48 total hours of co-culture, cells are harvested for flow cytometry. • 6. Cells are labeled with: CD40, CD209, and CD163. • a. Parameter 1: Gate on EC/monocytes by using FSC vs SSC on whole co-culture population • b. Parameter 2: Use SSC vs. CD40 to separate monocytes from EC. Note: loss of EC population reflects compound toxicity. • c. Parameter 3: Gate on CD40+ monocytes • d. Parameter 4: Determine CD40 MFI on CD40+ macrophages • e. Parameter 5: Determine CD209 MFI on CD40+ macrophages • f. Parameter 6: Determine CD163 MFI on CD40+ macrophages • g. Parameter 7: Subtract vehicle control MFIs from each sample of interest. In the example below (FIGS. 2A and 2B), EC stimulation with IFNγ may promote EC-triggered MΦ with CD40 MFI=40, CD209 MFI=60, CD163=10. DMSO treated EC promote MΦ with CD40=20, CD209 MFI=30, and CD163=100. […]

Structure (SMILES): CN(C)C(=N)N=C(N)N [metformin]
- position in the profile of pro-inflammatory (enhanced) and anti-inflammatory (dampening) compounds: dampening subset
